From ChEMBL document CHEMBL1140017, “Anti-AIDS agents 72. Bioisosteres (7-carbon-DCKs) of the potent anti-HIV lead DCK” (Bioorg Med Chem Lett, 2007)

Experiments:
[1] = Therapeutic index, IC50 for H9 cells to EC50 for HIV; assay type: cell-based; settings: human, read-out: Ratio IC50/EC50
H9 = test: Cytotoxicity against H9 cells assessed as growth inhibition; assay type: cell-based; settings: Homo sapiens
[2] = system: Human immunodeficiency virus; test: Antiviral activity against HIV replication in H9 cells; assay type: functional, organism-based; settings: Human immunodeficiency virus 1, H9

Row | Structure (SMILES) | selectivity ratio [1] | IC50 (H9) | EC50 [2]
1 | Cc1cc(=O)oc2c3c(ccc12)CC(C)(C)[C@H](OC(=O)C12CCC(C)(C(=O)O1)C2(C)C)[C@@H]3OC(=O)C12CCC(C)(C(=O)O1)C2(C)C (stereo partly specified) | > 100 | > 39400 nM | < 390 nM
2 | Cc1cc(=O)oc2c3c(ccc12)CC[C@H](OC(=O)C12CCC(C)(C(=O)O1)C2(C)C)[C@@H]3OC(=O)C12CCC(C)(C(=O)O1)C2(C)C (stereo partly specified) | 659 | 54400 nM | 83 nM
3 | Cc1cn([C@H]2C[C@H](N=[N+]=[N-])[C@@H](CO)O2)c(=O)[nH]c1=O [ZIDOVUDINE] | 36500 |  | 13.7 nM
4 | CC12CCC(C(=O)O[C@H]3CCc4ccc5ccc(=O)oc5c4[C@H]3OC(=O)C34CCC(C)(C(=O)O3)C4(C)C)(OC1=O)C2(C)C (stereo partly specified) | 841 | 57200 nM | 68 nM
